These results are taken from ChEMBL document CHEMBL3739277, “Design, synthesis, and antibacterial evaluation of novel azolylthioether quinolones as MRSA DNA intercalators” (2015).

Converted amounts (≈) assume the structure as drawn.

Holding throughout (assay type): functional
The test system of one experiment is Cyberlindnera jadinii. The experiment can be described thus: Antifungal activity against Candida utilis ATCC9950 assessed as growth inhibition incubated at 35 degC for 24 hrs by micro broth dilution method. The conditions noted are these: Williopsis jadinii, ATCC9950, 24 h.
The test system of the next experiment is Pseudomonas aeruginosa. The experiment can be described thus: Antibacterial activity against Pseudomonas aeruginosa ATCC27853 assessed as growth inhibition incubated at 37 degC for 24 hrs by micro broth dilution method. To be noted: ATCC27853, 24 h.
For the next experiment, the system named is Escherichia coli. The experiment can be described thus: Antibacterial activity against Escherichia coli JM109 assessed as growth inhibition incubated at 37 degC for 24 hrs by micro broth dilution method. To be noted: JM109, 24 h.
Experiment [1] in a line: Antifungal activity against Candida mycoderma ATCC9888 assessed as growth inhibition incubated at 35 degC for 24 hrs by micro broth dilution method. To be noted: Kregervanrija fluxuum.
The nature of experiment [2]: Antibacterial activity against Bacillus proteus ATCC13315 assessed as growth inhibition incubated at 37 degC for 24 hrs by micro broth dilution method. To be noted: ATCC13315, 24 h.
The test system of another experiment is Saccharomyces cerevisiae. As to the kind of experiment: Antifungal activity against Saccharomyces cerevisiae ATCC9763 assessed as growth inhibition incubated at 35 degC for 24 hrs by micro broth dilution method. To be noted: ATCC9763, 24 h.
The next experiment deals with Candida albicans. The experiment can be described thus: Antifungal activity against Candida albicans ATCC10231 assessed as growth inhibition incubated at 35 degC for 24 hrs by micro broth dilution method. The conditions noted are these: ATCC10231, 24 h.
A further experiment deals with Aspergillus flavus. The experiment can be described thus: Antifungal activity against Aspergillus flavus ATCC204304 assessed as growth inhibition incubated at 35 degC for 24 hrs by micro broth dilution method. The conditions noted are these: ATCC204304, 24 h.
A further experiment has as its system Bacillus subtilis. As to the kind of experiment: Antibacterial activity against Bacillus subtilis ATCC6633 assessed as growth inhibition incubated at 37 degC for 24 hrs by micro broth dilution method. The conditions noted are these: ATCC6633, 24 h.
A further experiment relates to Micrococcus luteus. The experiment can be described thus: Antibacterial activity against Micrococcus luteus ATCC4698 assessed as growth inhibition incubated at 37 degC for 24 hrs by micro broth dilution method. To be noted: ATCC4698, 24 h.
The subject of experiment [3] is Staphylococcus aureus. As to the kind of experiment: Antibacterial activity against Staphylococcus aureus ATCC25923 assessed as growth inhibition incubated at 37 degC for 24 hrs by micro broth dilution method. The conditions noted are these: ATCC25923, 24 h.
The subject of experiment [4] is Staphylococcus aureus. As to the kind of experiment: Antibacterial activity against methicillin resistant Staphylococcus aureus N315 assessed as growth inhibition incubated at 37 degC for 24 hrs by micro broth dilution method. To be noted: N315, 24 h.
A short description of experiment [5]: Antibacterial activity against Eberthella typhosa ATCC14028 assessed as growth inhibition incubated at 37 degC for 24 hrs by micro broth dilution method. The conditions noted are these: ATCC14028, 24 h.

With `Cn1nnnc1SCC(O)CN1CCN(c2cc3c(cc2F)c(=O)c(C(=O)O)cn3C2CC2)CC1` (configuration not stated), the MIC80 in the experiment on Cyberlindnera jadinii was determined as 256 µg/mL (≈ 508 µM); in [1] it was 16 µg/mL (≈ 31.8 µM); with Saccharomyces cerevisiae, 8 µg/mL (≈ 15.9 µM); in the experiment with Candida albicans, 8 µg/mL (≈ 15.9 µM); in the experiment on Aspergillus flavus it was 8 µg/mL (≈ 15.9 µM). In addition, the MIC in the experiment on Pseudomonas aeruginosa was determined as 16 µg/mL (≈ 31.8 µM); in the experiment with Escherichia coli, 8 µg/mL (≈ 15.9 µM); in [2] it was 4 µg/mL (≈ 7.94 µM); with Bacillus subtilis it was 8 µg/mL (≈ 15.9 µM); in the experiment with Micrococcus luteus, 8 µg/mL (≈ 15.9 µM).
Consider `CCn1cc(C(=O)O)c(=O)c2cc(F)c(N3CCN(CC4CO4)CC3)cc21` (configuration not stated), for which the MIC80 in the experiment on Cyberlindnera jadinii is 8 µg/mL (≈ 21.3 µM); in experiment [1], 1 µg/mL (≈ 2.66 µM); in the experiment with Saccharomyces cerevisiae it was 1 µg/mL (≈ 2.66 µM); with Candida albicans it was 4 µg/mL (≈ 10.7 µM); with Aspergillus flavus, 1 µg/mL (≈ 2.66 µM). Also, the MIC was 16 µg/mL (≈ 42.6 µM) in the experiment with Pseudomonas aeruginosa; 2 µg/mL (≈ 5.33 µM) with Escherichia coli; 4 µg/mL (≈ 10.7 µM) in experiment [2]; 8 µg/mL (≈ 21.3 µM) in the experiment on Staphylococcus aureus [3]; 2 µg/mL (≈ 5.33 µM) in the experiment with Staphylococcus aureus [4]; 64 µg/mL (≈ 170 µM) in the experiment with Bacillus subtilis. For the same compound, the MIC came to 16 µg/mL (≈ 42.6 µM) in [5] and 8 µg/mL (≈ 21.3 µM) with Micrococcus luteus.
In the case of `CCn1cc(C(=O)O)c(=O)c2cc(F)c(N3CCN(CC(O)CSc4ncn(Cc5ccc(Cl)cc5Cl)n4)CC3)cc21` (configuration not stated), the MIC80 in the experiment with Cyberlindnera jadinii was found to be 64 µg/mL (≈ 101 µM); in experiment [1], 64 µg/mL (≈ 101 µM); with Saccharomyces cerevisiae it was 16 µg/mL (≈ 25.2 µM); with Candida albicans, 64 µg/mL (≈ 101 µM); in the experiment with Aspergillus flavus, 4 µg/mL (≈ 6.29 µM). The MIC is 16 µg/mL (≈ 25.2 µM) in the experiment with Pseudomonas aeruginosa; 8 µg/mL (≈ 12.6 µM) with Escherichia coli; 4 µg/mL (≈ 6.29 µM) in [2]; 2 µg/mL (≈ 3.15 µM) in the experiment on Staphylococcus aureus [3]; 2 µg/mL (≈ 3.15 µM) in the experiment with Staphylococcus aureus [4]; 64 µg/mL (≈ 101 µM) in the experiment on Bacillus subtilis. Moreover, the MIC stood at 32 µg/mL (≈ 50.4 µM) in experiment [5] and 64 µg/mL (≈ 101 µM) in the experiment with Micrococcus luteus.
Consider `CCn1cc(C(=O)O)c(=O)c2cc(F)c(N3CCN(CC(O)CSc4nnnn4C)CC3)cc21` (configuration not stated), for which the MIC80 with Cyberlindnera jadinii is 64 µg/mL (≈ 130 µM); in experiment [1], 64 µg/mL (≈ 130 µM); in the experiment with Saccharomyces cerevisiae, 128 µg/mL (≈ 260 µM); in the experiment with Candida albicans, 32 µg/mL (≈ 65.1 µM); in the experiment with Aspergillus flavus, 64 µg/mL (≈ 130 µM). Moreover, the MIC in the experiment with Pseudomonas aeruginosa came out at 128 µg/mL (≈ 260 µM); in the experiment on Escherichia coli, 8 µg/mL (≈ 16.3 µM); in [2], 128 µg/mL (≈ 260 µM); in the experiment with Staphylococcus aureus [3], 128 µg/mL (≈ 260 µM); in the experiment on Staphylococcus aureus [4] it was 128 µg/mL (≈ 260 µM); in the experiment with Bacillus subtilis it was 32 µg/mL (≈ 65.1 µM). The results for the MIC (in experiment [5]; with Micrococcus luteus) were 32 µg/mL (≈ 65.1 µM) and 64 µg/mL (≈ 130 µM), respectively.
In the case of `Cn1nnnc1SCC(O)CNC1CCN(c2c(F)cc3c(=O)c(C(=O)O)cn(C4CC4)c3c2Cl)C1` (configuration not stated), the MIC80 in the experiment on Cyberlindnera jadinii is 128 µg/mL (≈ 238 µM); in experiment [1], 1 µg/mL (≈ 1.86 µM); with Saccharomyces cerevisiae, 1 µg/mL (≈ 1.86 µM); with Candida albicans it was 2 µg/mL (≈ 3.72 µM); in the experiment with Aspergillus flavus, 1 µg/mL (≈ 1.86 µM). Besides, the MIC in the experiment on Pseudomonas aeruginosa turned out to be 1 µg/mL (≈ 1.86 µM); with Escherichia coli, 1 µg/mL (≈ 1.86 µM); in experiment [2] it was 1 µg/mL (≈ 1.86 µM); in the experiment with Staphylococcus aureus [3], 2 µg/mL (≈ 3.72 µM); in the experiment on Staphylococcus aureus [4], 2 µg/mL (≈ 3.72 µM); with Bacillus subtilis, 1 µg/mL (≈ 1.86 µM). The MIC (in experiment [5]; with Micrococcus luteus) was 1 µg/mL (≈ 1.86 µM) throughout.
Turning to `NC1CCN(c2c(F)cc3c(=O)c(C(=O)O)cn(C4CC4)c3c2Cl)C1` (configuration not stated) [CLINAFLOXACIN], the MIC in the experiment with Pseudomonas aeruginosa stood at 1 µg/mL (≈ 2.73 µM); in the experiment with Escherichia coli, 1 µg/mL (≈ 2.73 µM); in [2], 0.5 µg/mL (≈ 1.37 µM); in the experiment with Staphylococcus aureus [3], 0.5 µg/mL (≈ 1.37 µM); with Staphylococcus aureus [4] it was 1 µg/mL (≈ 2.73 µM); with Bacillus subtilis, 0.5 µg/mL (≈ 1.37 µM). The MIC turned out to be 1 µg/mL (≈ 2.73 µM) in experiment [5] and 0.5 µg/mL (≈ 1.37 µM) in the experiment with Micrococcus luteus.
For the compound `O=C(O)c1cn(C2CC2)c2c(Cl)c(N3CCC(NCC(O)CSc4ncn(Cc5ccc(Cl)cc5Cl)n4)C3)c(F)cc2c1=O` (configuration not stated), the MIC80 was 16 µg/mL (≈ 23.5 µM) with Cyberlindnera jadinii; 4 µg/mL (≈ 5.87 µM) in [1]; 64 µg/mL (≈ 93.8 µM) in the experiment with Saccharomyces cerevisiae; 16 µg/mL (≈ 23.5 µM) in the experiment with Candida albicans; 64 µg/mL (≈ 93.8 µM) in the experiment with Aspergillus flavus. The MIC with Pseudomonas aeruginosa is 1 µg/mL (≈ 1.47 µM); in the experiment with Escherichia coli it was 1 µg/mL (≈ 1.47 µM); in [2], 0.5 µg/mL (≈ 0.733 µM); with Staphylococcus aureus [3] it was 2 µg/mL (≈ 2.93 µM); in the experiment on Staphylococcus aureus [4], 8 µg/mL (≈ 11.7 µM); with Bacillus subtilis it was 0.5 µg/mL (≈ 0.733 µM). In addition, the MIC in experiment [5] stood at 1 µg/mL (≈ 1.47 µM); in the experiment with Micrococcus luteus, 4 µg/mL (≈ 5.87 µM).
Take `O=C(O)c1cn(C2CC2)c2cc(N3CCNCC3)c(F)cc2c1=O` [CIPROFLOXACIN]: the MIC (with Pseudomonas aeruginosa; in [2]; in the experiment with Bacillus subtilis; in experiment [5]) was 1 µg/mL (≈ 3.02 µM) throughout.
